Data taken from PubChem BioAssay (NCI).
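Compound exposure: 48 hours, 5 concentrations, 96-well plates. TGI denotes the concentration required for complete inhibition of growth.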

Legend:
Experiment in all cases: NCI tumour cell line growth inhibition, 48 h
786-0 renal = test system: 786-0 renal
A498 renal = test system: A498 renal
A549 NSCLC = test system: A549 NSCLC
ACHN renal = test system: ACHN renal
CAKI-1 renal = test system: CAKI-1 renal
CCRF-CEM leukemia = test system: CCRF-CEM leukemia
COLO 205 colon = test system: COLO 205 colon
DLD-1 colon = test system: DLD-1 colon
DMS 114 small cell lung = test system: DMS 114 small cell lung
DMS 273 small cell lung = test system: DMS 273 small cell lung
EKVX NSCLC = test system: EKVX NSCLC
HCC-2998 colon = test system: HCC-2998 colon
HCT-116 colon = test system: HCT-116 colon
HCT-15 colon = test system: HCT-15 colon
HL-60(TB) leukemia = test system: HL-60(TB) leukemia
HOP-18 NSCLC = test system: HOP-18 NSCLC
HOP-62 NSCLC = test system: HOP-62 NSCLC
HOP-92 NSCLC = test system: HOP-92 NSCLC
HT29 colon = test system: HT29 colon
IGROV1 ovarian = test system: IGROV1 ovarian
K-562 leukemia = test system: K-562 leukemia
KM12 colon = test system: KM12 colon
KM20L2 colon = test system: KM20L2 colon
LOX IMVI melanoma = test system: LOX IMVI melanoma
LXFL 529 NSCLC = test system: LXFL 529 NSCLC
M14 melanoma = test system: M14 melanoma
M19-MEL melanoma = test system: M19-MEL melanoma
MALME-3M melanoma = test system: MALME-3M melanoma
MOLT-4 leukemia = test system: MOLT-4 leukemia
NCI-H226 lung = test system: NCI-H226 lung
NCI-H23 lung = test system: NCI-H23 lung
NCI-H460 lung = test system: NCI-H460 lung
NCI-H522 lung = test system: NCI-H522 lung
OVCAR-3 ovarian = test system: OVCAR-3 ovarian
OVCAR-4 ovarian = test system: OVCAR-4 ovarian
OVCAR-5 ovarian = test system: OVCAR-5 ovarian
OVCAR-8 ovarian = test system: OVCAR-8 ovarian
RPMI-8226 leukemia = test system: RPMI-8226 leukemia
RXF 393 renal = test system: RXF 393 renal
RXF-631 renal = test system: RXF-631 renal
SF-268 CNS = test system: SF-268 CNS
SF-295 CNS = test system: SF-295 CNS
SF-539 CNS = test system: SF-539 CNS
SK-MEL-2 melanoma = test system: SK-MEL-2 melanoma
SK-MEL-28 melanoma = test system: SK-MEL-28 melanoma
SK-MEL-5 melanoma = test system: SK-MEL-5 melanoma
SK-OV-3 ovarian = test system: SK-OV-3 ovarian
SN12C renal = test system: SN12C renal
SNB-19 CNS = test system: SNB-19 CNS
SNB-75 CNS = test system: SNB-75 CNS
SR leukemia = test system: SR leukemia
SW-620 colon = test system: SW-620 colon
TK-10 renal = test system: TK-10 renal
U251 CNS = test system: U251 CNS
UACC-257 melanoma = test system: UACC-257 melanoma
UACC-62 melanoma = test system: UACC-62 melanoma
UO-31 renal = test system: UO-31 renal
XF 498 CNS = test system: XF 498 CNS
SNB-78 CNS = test system: SNB-78 CNS

NC(=O)c1c2c(cc3c(=O)c4ccccc4[nH]c13)CCCC2
TGI (786-0 renal): > 100 µM | TGI (A498 renal): > 100 µM | TGI (A549 NSCLC): > 100 µM | TGI (ACHN renal): > 100 µM | TGI (CAKI-1 renal): > 100 µM | TGI (CCRF-CEM leukemia): 98.7 µM | TGI (COLO 205 colon): > 100 µM | TGI (DLD-1 colon): > 100 µM | TGI (DMS 114 small cell lung): > 100 µM | TGI (DMS 273 small cell lung): > 100 µM | TGI (EKVX NSCLC): > 100 µM | TGI (HCC-2998 colon): > 100 µM | TGI (HCT-116 colon): > 100 µM | TGI (HCT-15 colon): > 100 µM | TGI (HL-60(TB) leukemia): > 100 µM | TGI (HOP-18 NSCLC): > 100 µM | TGI (HOP-62 NSCLC): > 100 µM | TGI (HOP-92 NSCLC): > 100 µM | TGI (HT29 colon): > 100 µM | TGI (IGROV1 ovarian): > 100 µM | TGI (K-562 leukemia): > 97.3 µM | TGI (KM12 colon): > 100 µM | TGI (KM20L2 colon): > 100 µM | TGI (LOX IMVI melanoma): > 100 µM | TGI (LXFL 529 NSCLC): > 100 µM | TGI (M14 melanoma): > 100 µM | TGI (M19-MEL melanoma): > 100 µM | TGI (MALME-3M melanoma): > 100 µM | TGI (MOLT-4 leukemia): > 80.7 µM | TGI (NCI-H226 lung): > 100 µM | TGI (NCI-H23 lung): > 100 µM | TGI (NCI-H460 lung): > 100 µM | TGI (NCI-H522 lung): > 100 µM | TGI (OVCAR-3 ovarian): > 100 µM | TGI (OVCAR-4 ovarian): > 100 µM | TGI (OVCAR-5 ovarian): > 100 µM | TGI (OVCAR-8 ovarian): > 100 µM | TGI (RPMI-8226 leukemia): > 78.7 µM | TGI (RXF 393 renal): > 100 µM | TGI (RXF-631 renal): > 100 µM | TGI (SF-268 CNS): > 100 µM | TGI (SF-295 CNS): > 100 µM | TGI (SF-539 CNS): > 100 µM | TGI (SK-MEL-2 melanoma): > 100 µM | TGI (SK-MEL-28 melanoma): > 100 µM | TGI (SK-MEL-5 melanoma): > 100 µM | TGI (SK-OV-3 ovarian): > 100 µM | TGI (SN12C renal): > 100 µM | TGI (SNB-19 CNS): > 100 µM | TGI (SNB-75 CNS): > 75 µM | TGI (SR leukemia): > 100 µM | TGI (SW-620 colon): > 100 µM | TGI (TK-10 renal): > 100 µM | TGI (U251 CNS): > 100 µM | TGI (UACC-257 melanoma): > 100 µM | TGI (UACC-62 melanoma): > 100 µM | TGI (UO-31 renal): > 100 µM | TGI (XF 498 CNS): > 100 µM

CCOC(=O)[C@H]1Nc2ccc(Cl)cc2[C@H]2c3ccccc3O[C@H]21
TGI (786-0 renal): > 100 µM | TGI (A549 NSCLC): > 100 µM | TGI (ACHN renal): > 100 µM | TGI (CAKI-1 renal): > 100 µM | TGI (COLO 205 colon): > 100 µM | TGI (DLD-1 colon): > 100 µM | TGI (DMS 114 small cell lung): > 100 µM | TGI (DMS 273 small cell lung): > 100 µM | TGI (EKVX NSCLC): > 100 µM | TGI (HCC-2998 colon): > 100 µM | TGI (HCT-116 colon): > 100 µM | TGI (HCT-15 colon): > 100 µM | TGI (HOP-18 NSCLC): > 100 µM | TGI (HOP-62 NSCLC): > 100 µM | TGI (HT29 colon): > 100 µM | TGI (IGROV1 ovarian): > 100 µM | TGI (K-562 leukemia): > 100 µM | TGI (KM12 colon): > 100 µM | TGI (KM20L2 colon): > 100 µM | TGI (LOX IMVI melanoma): > 100 µM | TGI (LXFL 529 NSCLC): > 100 µM | TGI (M14 melanoma): > 100 µM | TGI (M19-MEL melanoma): > 100 µM | TGI (MOLT-4 leukemia): > 100 µM | TGI (NCI-H226 lung): > 100 µM | TGI (NCI-H460 lung): > 100 µM | TGI (NCI-H522 lung): > 100 µM | TGI (OVCAR-3 ovarian): > 100 µM | TGI (OVCAR-4 ovarian): > 100 µM | TGI (OVCAR-5 ovarian): > 100 µM | TGI (OVCAR-8 ovarian): > 100 µM | TGI (RPMI-8226 leukemia): > 100 µM | TGI (RXF 393 renal): > 100 µM | TGI (RXF-631 renal): > 100 µM | TGI (SF-268 CNS): > 100 µM | TGI (SF-295 CNS): > 100 µM | TGI (SF-539 CNS): > 100 µM | TGI (SK-MEL-2 melanoma): > 100 µM | TGI (SK-MEL-28 melanoma): > 100 µM | TGI (SK-MEL-5 melanoma): > 100 µM | TGI (SN12C renal): > 100 µM | TGI (SNB-19 CNS): > 100 µM | TGI (SNB-75 CNS): > 100 µM | TGI (SNB-78 CNS): > 100 µM | TGI (SR leukemia): > 100 µM | TGI (SW-620 colon): > 100 µM | TGI (TK-10 renal): > 100 µM | TGI (U251 CNS): > 100 µM | TGI (UACC-257 melanoma): > 100 µM | TGI (UACC-62 melanoma): > 100 µM | TGI (UO-31 renal): > 100 µM | TGI (XF 498 CNS): > 100 µM
